US8927538B2, “Carbazole linked pyrrolo[2,1-c][1,4]benzodiazefine hybrids as potential anticancer agents and process for the preparation thereof” (Council of Scientific & Industrial Research, priority 2010, dated 2015)

What was measured:
[1] = system: Melanoma cancer cell lines; test: NCI SRB cytotoxicity, melanoma panel; format: cell-based, human; details: average of six to eight cell lines
From the text: (§1) The C8-linked carbazole-PBD hybrids have been tested against sixty human tumour cell lines derived from nine cancer types (leukemia, non-small cell lung cancer, colon cancer, CNS cancer, melanoma, ovarian cancer, renal cancer, prostate cancer and breast cancer) as per NCI protocol, For each compound, dose response curves for individual cell lines have been measured at a minimum of five concentrations at 10 fold dilutions. A protocol of 48 hrs continuous drug exposure has been used, and a sulforhodamine B (SRB) protein assay was used to estimate cell viability or growth. The concentration for 50% cell growth inhibition (GI50), total cell growth inhibition (TGI, 0% growth) and 50% cell death (LC50, […]) compared with the control has been calculated (Table-3).
(§2) Compounds 6c and 14a have been evaluated for in vitro cytotoxicity in sixty cell lines from nine human cancer types of lung (Hop-62, NCI-H226, NCI-H522), leukemia (K-562, SR), colon (HCT-116, HCT-15, HCC-2998), CNS(SF-539), melanoma (SK-MEL-5, UACC-62, M14), ovarian (IGROV1), renal (A498), prostate (PC3) breast (BT-549, MDA-MB-435, HS578T) origin. The results are expressed as percent of cell growth determined relative to that of untreated control cells (Table 1).

K-562 = test: NCI SRB cytotoxicity, K-562; format: cell-based, human; details: Leukemia K-562, 48 hrs exposure
From the text: as §1, §2

MOLT-4 = test: NCI SRB cytotoxicity, MOLT-4; format: cell-based, human; details: Leukemia MOLT-4, 48 hrs exposure
From the text: as §1, §2

A549/ATCC = test: NCI SRB cytotoxicity, A549/ATCC; format: cell-based, human; details: Non-small cell lung A549/ATCC, 48 hrs exposure
From the text: as §1, §2

NCI-H226 = test: NCI SRB cytotoxicity, NCI-H226; format: cell-based, human; details: Non-small cell lung NCI-H226, 48 hrs exposure
From the text: as §1, §2

SF-268 = test: NCI SRB cytotoxicity, SF-268; format: cell-based, human; details: CNS SF-268, 48 hrs exposure
From the text: as §1, §2

U251 = test: NCI SRB cytotoxicity, U251; format: cell-based, human; details: CNS U251, 48 hrs exposure
From the text: as §1, §2

LOX IMVI = test: NCI SRB cytotoxicity, LOX IMVI; format: cell-based, human; details: Melanoma LOX IMVI, 48 hrs exposure
From the text: as §1, §2

MALME-3M = test: NCI SRB cytotoxicity, MALME-3M; format: cell-based, human; details: Melanoma MALME-3M, 48 hrs exposure
From the text: as §1, §2

M14 = test: NCI SRB cytotoxicity, M14; format: cell-based, human; details: Melanoma M14, 48 hrs exposure
From the text: as §1, §2

SK-MEL-28 = test: NCI SRB cytotoxicity, SK-MEL-28; format: cell-based, human; details: Melanoma SK-MEL-28, 48 hrs exposure
From the text: as §1, §2

SK-MEL-5 = test: NCI SRB cytotoxicity, SK-MEL-5; format: cell-based, human; details: Melanoma SK-MEL-5, 48 hrs exposure
From the text: as §1, §2

OVCAR-4 = test: NCI SRB cytotoxicity, OVCAR-4; format: cell-based, human; details: Ovarian OVCAR-4, 48 hrs exposure
From the text: as §1, §2

OVCAR-5 = test: NCI SRB cytotoxicity, OVCAR-5; format: cell-based, human; details: Ovarian OVCAR-5, 48 hrs exposure
From the text: as §1, §2

A498 = test: NCI SRB cytotoxicity, A498; format: cell-based, human; details: Renal A498, 48 hrs exposure
From the text: as §1, §2

ACHN = test: NCI SRB cytotoxicity, ACHN; format: cell-based, human; details: Renal ACHN, 48 hrs exposure
From the text: as §1, §2

MCF7 = test: NCI SRB cytotoxicity, MCF7; format: cell-based, human; details: Breast MCF7, 48 hrs exposure
From the text: as §1, §2

PC-3 = test: NCI SRB cytotoxicity, PC-3; format: cell-based, human; details: Prostate PC-3, 48 hrs exposure
From the text: as §1, §2

DU-145 = test: NCI SRB cytotoxicity, DU-145; format: cell-based, human; details: Prostate DU-145, 48 hrs exposure
From the text: as §1, §2

[2] = system: duplex-form calf thymus DNA (CT-DNA); test: Thermal denaturation studies (DNA binding); details: [PBD]:[DNA] molar ratio 1:5, CT-DNA 100 μM, ligand 20 μM; for ΔTm after incubation at 37 °C for 0 h: pH 7.00, 0 h; for ΔTm after incubation at 37 °C for 18 h: pH 7.00, 18 h
Procedure: Compounds have been subjected to thermal denaturation studies with duplex-form calf thymus DNA (CT-DNA) using a modification of a reported procedure. Working solutions in aqueous buffer ([…] NaH2PO4/Na2HPO4, 1 mM Na2EDTA, pH 7.00±0.01) containing CT-DNA (100 μM in phosphate) and the PBD (20 μM) have been prepared by addition of concentrated PBD solutions in DMSO to obtain a fixed [PBD]/[DNA] molar ratio of 1:5. The DNA-PBD solutions have been incubated at 37° C. for 0 and 18 hrs prior to analysis. Samples have been monitored at 260 nm using a Beckman DU-800 spectrophotometer fitted with high performance temperature controller, and heated at 1° C. min^−1 in the 40-110° C. range. DNA helix→coil transition temperatures (Tm) have been obtained from the maxima in the d(A260)/dT derivative plots. Drug-induced alterations in DNA melting behavior are given by: […]Tm=Tm(DNA+PBD)-Tm(DNA alone), where the Tm value for the PBD-free CT-DNA is 68.5 […]0.01.
The DNA-binding for these C8-linked carbazole-PBD hybrids has been examined by thermal denaturation studies using calf thymus (CT) DNA. […] Data for 6a, 6b, 6c, 14a, 14b, and 14d and DC-81 are included in Table 5 for comparison.

SR = test: NCI SRB cytotoxicity, SR; format: cell-based, human; details: Leukemia SR, 48 hrs exposure
From the text: as §1, §2

NCI-H522 = test: NCI SRB cytotoxicity, NCI-H522; format: cell-based, human; details: Non-small cell lung NCI-H522, 48 hrs exposure
From the text: as §1, §2

HT 29 = test: NCI SRB cytotoxicity, HT 29; format: cell-based, human; details: Colon HT 29, 48 hrs exposure
From the text: as §1, §2

SW-620 = test: NCI SRB cytotoxicity, SW-620; format: cell-based, human; details: Colon SW-620, 48 hrs exposure
From the text: as §1, §2

SMILES: COc1cc2c(cc1OCCCCCn1c3ccccc3c3ccccc31)N=C[C@@H]1CCCN1C2=O [Compound 6c, 7-Methoxy-8-[5-(9H-9-carbazoly)pentyloxy]-(11aS)-1,2,3,11a-tetrahydro-5H-Pyrrolo[2,1-c][1,4]benzodiazepin-5-one]
- Log10 GI50 [1]: −5.71 mol/L
- Log10 LC50 (concentration causing 50% lethality) [1]: −4.74 mol/L
- GI50 (K-562): 2600 nM
- GI50 (MOLT-4): 2150 nM
- GI50 (A549/ATCC): 1570 nM
- GI50 (NCI-H226): 2490 nM
- GI50 (SF-268): 1910 nM
- GI50 (U251): 1590 nM
- GI50 (LOX IMVI): 2080 nM
- GI50 (MALME-3M): 2200 nM
- GI50 (M14): 2100 nM
- GI50 (SK-MEL-28): 1800 nM
- GI50 (SK-MEL-5): 1730 nM
- GI50 (OVCAR-4): 3090 nM
- GI50 (OVCAR-5): 2420 nM
- GI50 (A498): 1770 nM
- GI50 (ACHN): 1740 nM
- GI50 (MCF7): 2330 nM
- GI50 (PC-3): 2360 nM
- GI50 (DU-145): 2230 nM
- ΔTm after incubation at 37 °C for 0 h [2]: 4.1 °C
- ΔTm after incubation at 37 °C for 18 h [2]: 4.9 °C

SMILES: COc1cc2c(cc1OCCCN1CCN(CCCn3c4ccccc4c4ccccc43)CC1)N=C[C@@H]1CCCN1C2=O [Compound 14a]
- Log10 GI50 [1]: −6.91 mol/L
- Log10 LC50 (concentration causing 50% lethality) [1]: −6.06 mol/L
- GI50 (SR): 30 nM
- GI50 (NCI-H522): < 10 nM
- GI50 (HT 29): 50 nM
- GI50 (SW-620): 40 nM
- GI50 (MALME-3M): 150 nM
- GI50 (SK-MEL-28): 60 nM
- GI50 (SK-MEL-5): 230 nM
- GI50 (OVCAR-4): 100 nM
- GI50 (A498): 170 nM
- GI50 (ACHN): 250 nM
- ΔTm after incubation at 37 °C for 0 h [2]: 7.5 °C
- ΔTm after incubation at 37 °C for 18 h [2]: 8.2 °C
